The source of these data is PubChem BioAssay (NCI).

Among the test systems are HCT-15 colon; A549 NSCLC; K-562 leukemia; OVCAR-4 ovarian; SN12C renal; DU-145 prostate; UO-31 renal; MDA-MB-231 breast; PC-3 prostate; HS 578T breast.
Holding throughout (experiment): growth of human tumour cells (NCI), 48 h

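Compound exposure: 48 hours, 5 concentrations, 96-well plates. At the TGI there is no net growth.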

For `CCN(CC)C1Oc2cc3c(cc2C(c2cc(OC)c(OC)c(OC)c2)C1C)OCO3` (stereo not given), the TGI with HCT-15 colon was 13.3 µM; in the test on A549 NSCLC it was more than 46.8 µM; in the test with K-562 leukemia, 11.1 µM; in the test on OVCAR-4 ovarian it was more than 100 µM; with SN12C renal, more than 53.8 µM; in the test on DU-145 prostate it was more than 91.4 µM. In addition, the TGI is more than 46.7 µM with UO-31 renal, 65.9 µM in the test with MDA-MB-231 breast, more than 57.4 µM with PC-3 prostate and more than 100 µM with HS 578T breast.
For `O=c1[nH]c2cc([N+](=O)[O-])c(Nc3c4ccccc4nc4ccccc34)c([N+](=O)[O-])c2[nH]1`, the TGI came to 14.4 µM with HCT-15 colon; 12.3 µM in the test on A549 NSCLC; 6.96 µM in the test with K-562 leukemia; 13.9 µM in the test with OVCAR-4 ovarian; 9.1 µM with SN12C renal; 8.82 µM in the test on DU-145 prostate. The TGI with UO-31 renal is 5.98 µM; in the test with MDA-MB-231 breast, 17.5 µM; in the test on PC-3 prostate it was 15.2 µM; with HS 578T breast it was more than 28.9 µM.
As for `Cn1ccc2c(c1=O)C(=O)OC2(C)C`, the TGI in the test with HCT-15 colon, with A549 NSCLC, in the test with K-562 leukemia, in the test with OVCAR-4 ovarian, with SN12C renal and in the test on DU-145 prostate was more than 100 µM in each case. Besides, the TGI with UO-31 renal, in the test with MDA-MB-231 breast, in the test with PC-3 prostate and in the test on HS 578T breast was more than 100 µM each time.
On to `CC(=O)Nc1ccc(/C=C2/NC(=S)N(/C=C3\C(=O)Oc4ccccc4C3=O)C2=O)cc1`, for which the TGI in the test on HCT-15 colon, in the test with A549 NSCLC, in the test with K-562 leukemia, in the test on OVCAR-4 ovarian, in the test with SN12C renal and with DU-145 prostate was more than 100 µM each time. Also, the TGI in the test with UO-31 renal, in the test on MDA-MB-231 breast, with PC-3 prostate and in the test with HS 578T breast was more than 100 µM each time.
As to `Cc1ccc(NC2=N/C(=C/c3ccco3)C(Cl)=N2)cc1`, the TGI with HCT-15 colon, in the test on A549 NSCLC, in the test with K-562 leukemia, with OVCAR-4 ovarian, in the test on SN12C renal and with DU-145 prostate was more than 100 µM each time. Besides, the TGI in the test with UO-31 renal, in the test on MDA-MB-231 breast, in the test on PC-3 prostate and in the test with HS 578T breast was more than 100 µM throughout.
`O=C(O)CCSC1=NCCN1`: the TGI in the test on HCT-15 colon, in the test with A549 NSCLC, in the test with K-562 leukemia, in the test with OVCAR-4 ovarian, in the test on SN12C renal and in the test on DU-145 prostate was more than 100 µM in each case. Further, the TGI with UO-31 renal, in the test on MDA-MB-231 breast, with PC-3 prostate and with HS 578T breast was more than 100 µM each time.
`C=CCOC1(CC=C)C(=O)OC2C(O)COC21O` (stereo not given): the TGI in the test on HCT-15 colon, in the test with A549 NSCLC, in the test on K-562 leukemia, in the test with OVCAR-4 ovarian, in the test on SN12C renal and with DU-145 prostate was more than 100 µM in each case. Also, the TGI in the test on UO-31 renal, in the test on MDA-MB-231 breast, with PC-3 prostate and in the test on HS 578T breast was more than 100 µM throughout.
Turning to `COc1ccc2c(c1)C(=O)C1CCC(=O)N1C2c1ccc2c(c1)OCO2` (stereo not given), the TGI in the test with HCT-15 colon was determined as 29.6 µM; in the test with A549 NSCLC, 51.5 µM; in the test on K-562 leukemia, 39.8 µM; with OVCAR-4 ovarian, 47.9 µM; in the test with SN12C renal it was 24.4 µM; in the test on DU-145 prostate, 33.4 µM. Besides, the TGI turned out to be 22.4 µM with UO-31 renal, 54.6 µM in the test on MDA-MB-231 breast, 29.5 µM in the test with PC-3 prostate and 88.1 µM in the test on HS 578T breast.
Turning to `COc1cccc(NC(=O)CC(=O)N2N=C(C)C(N=Nc3ccc(C(=O)O)cc3)C2=O)c1` (stereo not given), the TGI with HCT-15 colon, with A549 NSCLC, in the test with K-562 leukemia, in the test with OVCAR-4 ovarian, in the test on SN12C renal and with DU-145 prostate was more than 100 µM each time. The TGI with UO-31 renal, with MDA-MB-231 breast, in the test on PC-3 prostate and in the test with HS 578T breast was more than 100 µM each time.
As to `CNC(=O)N(CCC#N)CCCN(C(=O)N(C)C)c1ccccc1`, the TGI with HCT-15 colon, in the test with A549 NSCLC, with K-562 leukemia, with OVCAR-4 ovarian, with SN12C renal and in the test with DU-145 prostate was more than 100 µM each time. In addition, the TGI in the test on UO-31 renal, with MDA-MB-231 breast, with PC-3 prostate and in the test on HS 578T breast was more than 100 µM each time.
`COc1ccc(C2SCC(=O)N2NC(=O)C(C)Oc2ccc(Cl)cc2Cl)cc1` (stereo not given): the TGI in the test with HCT-15 colon is more than 100 µM; in the test with A549 NSCLC, more than 100 µM; in the test on K-562 leukemia it was 89.8 µM; with OVCAR-4 ovarian it was 52.6 µM; with SN12C renal it was more than 100 µM; in the test with DU-145 prostate, more than 100 µM. Besides, the TGI in the test on UO-31 renal is more than 100 µM; in the test with MDA-MB-231 breast, 81 µM; with PC-3 prostate, 75.6 µM; in the test on HS 578T breast, more than 100 µM.
